# Measured values as given in the supplement of paper PMC10307832.
# What was measured:
# Test in all cases: relative viability (nuclei count vs DMSO), 5 days (fraction); higher = more cells survive
# NCI-H322M = tested on: NCI-H322M
# In short: (§1)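 A single step with final 0.05% Triton X-100, 1% formaldehyde and 1 ug/ml Hoechst fixed the cells and stained nuclei 5 days after treatment. Lung cancer cell lines in 1536-well plates had been treated by pin tool the day after seeding with one drug alone or a fixed anchor-drug dose plus five library-drug doses (not always all listed) in √10 steps, and nuclei were counted on 4× images. Relative viability is the ratio of nuclei in treated wells to nuclei in vehicle wells, taken as the median of duplicate plates.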
# NCI-H2347 = tested on: NCI-H2347
# In short: as §1
# NCI-H727 = tested on: NCI-H727
# In short: as §1
# NCI-H2085 = tested on: NCI-H2085
# In short: as §1
# NCI-H647 = tested on: NCI-H647
# In short: as §1
# NCI-H2009 = tested on: NCI-H2009
# In short: as §1
# NCI-H1650 = tested on: NCI-H1650
# In short: as §1
# NCI-H2126 = tested on: NCI-H2126
# In short: as §1
# NCI-H1993 = tested on: NCI-H1993
# In short: as §1
# SW 1573 = tested on: SW 1573
# In short: as §1
# NCI-H661 = tested on: NCI-H661
# In short: as §1
# SK-LU-1 = tested on: SK-LU-1
# In short: as §1
# NCI-H1915 = tested on: NCI-H1915
# In short: as §1
# HOP-62 = tested on: HOP-62
# In short: as §1
# NCI-H2023 = tested on: NCI-H2023
# In short: as §1
# EMC-BAC-2 = tested on: EMC-BAC-2
# In short: as §1
# NCI-H2342 = tested on: NCI-H2342
# In short: as §1
# PC-14 = tested on: PC-14
# In short: as §1
# LCLC-97TM1 = tested on: LCLC-97TM1
# In short: as §1
# LXF-289 = tested on: LXF-289
# In short: as §1
# H3255 = tested on: H3255
# In short: as §1
# EPLC-272H = tested on: EPLC-272H
# In short: as §1
compound,measurement,setting,value
NC(=O)Nc1cc(-c2cccc(F)c2)sc1C(=O)N[C@H]1CCCNC1 [AZD7762] + CC(=O)Nc1cccc(-n2c(=O)n(C3CC3)c(=O)c3c(Nc4ccc(I)cc4F)n(C)c(=O)c(C)c32)c1 [Trametinib] (partner 0.02 µM),relative viability,NCI-H322M; first compound 0.01 µM,0.548
same,relative viability,NCI-H322M; first compound 0.03162 µM,0.583
same,relative viability,NCI-H322M; first compound 0.1 µM,0.526
same,relative viability,NCI-H322M; first compound 0.3162 µM,0.58
same,relative viability,NCI-H322M; first compound 1 µM,0.369
same,relative viability,NCI-H2347; first compound 0.01 µM,0.313
same,relative viability,NCI-H2347; first compound 0.03162 µM,0.279
same,relative viability,NCI-H2347; first compound 0.1 µM,0.281
same,relative viability,NCI-H2347; first compound 0.3162 µM,0.287
same,relative viability,NCI-H2347; first compound 1 µM,0.305
same,relative viability,NCI-H727; first compound 0.01 µM,0.361
same,relative viability,NCI-H727; first compound 0.03162 µM,0.429
same,relative viability,NCI-H727; first compound 0.1 µM,0.358
same,relative viability,NCI-H727; first compound 0.3162 µM,0.366
same,relative viability,NCI-H727; first compound 1 µM,0.299
same,relative viability,NCI-H2085; first compound 0.01 µM,0.514
same,relative viability,NCI-H2085; first compound 0.03162 µM,0.559
same,relative viability,NCI-H2085; first compound 0.1 µM,0.632
same,relative viability,NCI-H2085; first compound 0.3162 µM,0.713
same,relative viability,NCI-H2085; first compound 1 µM,0.357
same,relative viability,NCI-H647; first compound 0.01 µM,0.533
same,relative viability,NCI-H647; first compound 0.03162 µM,0.579
same,relative viability,NCI-H647; first compound 0.1 µM,0.456
same,relative viability,NCI-H647; first compound 0.3162 µM,0.384
same,relative viability,NCI-H647; first compound 1 µM,0.16
same,relative viability,NCI-H2009; first compound 0.01 µM,0.279
same,relative viability,NCI-H2009; first compound 0.03162 µM,0.35
same,relative viability,NCI-H2009; first compound 0.1 µM,0.207
same,relative viability,NCI-H2009; first compound 0.3162 µM,0.295
same,relative viability,NCI-H2009; first compound 1 µM,0.236
same,relative viability,NCI-H1650; first compound 0.01 µM,0.65
same,relative viability,NCI-H1650; first compound 0.03162 µM,0.659
same,relative viability,NCI-H1650; first compound 0.1 µM,0.631
same,relative viability,NCI-H1650; first compound 0.3162 µM,0.532
same,relative viability,NCI-H1650; first compound 1 µM,0.209
same,relative viability,NCI-H2126; first compound 0.01 µM,0.547
same,relative viability,NCI-H2126; first compound 0.03162 µM,0.629
same,relative viability,NCI-H2126; first compound 0.1 µM,0.529
same,relative viability,NCI-H2126; first compound 0.3162 µM,0.639
same,relative viability,NCI-H2126; first compound 1 µM,0.675
same,relative viability,NCI-H1993; first compound 0.01 µM,0.458
same,relative viability,NCI-H1993; first compound 0.03162 µM,0.482
same,relative viability,NCI-H1993; first compound 0.1 µM,0.605
same,relative viability,NCI-H1993; first compound 0.3162 µM,0.674
same,relative viability,NCI-H1993; first compound 1 µM,0.536
same,relative viability,SW 1573; first compound 0.01 µM,0.741
same,relative viability,SW 1573; first compound 0.03162 µM,0.502
same,relative viability,SW 1573; first compound 0.1 µM,0.584
same,relative viability,SW 1573; first compound 0.3162 µM,0.583
same,relative viability,SW 1573; first compound 1 µM,0.342
same,relative viability,NCI-H661; first compound 0.01 µM,0.662
same,relative viability,NCI-H661; first compound 0.03162 µM,0.569
same,relative viability,NCI-H661; first compound 0.1 µM,0.577
same,relative viability,NCI-H661; first compound 0.3162 µM,0.599
same,relative viability,NCI-H661; first compound 1 µM,0.369
same,relative viability,SK-LU-1; first compound 0.01 µM,0.553
same,relative viability,SK-LU-1; first compound 0.03162 µM,0.609
same,relative viability,SK-LU-1; first compound 0.1 µM,0.393
same,relative viability,SK-LU-1; first compound 0.3162 µM,0.188
same,relative viability,SK-LU-1; first compound 1 µM,0.24
same,relative viability,NCI-H1915; first compound 0.01 µM,0.342
same,relative viability,NCI-H1915; first compound 0.03162 µM,0.332
same,relative viability,NCI-H1915; first compound 0.1 µM,0.305
same,relative viability,NCI-H1915; first compound 0.3162 µM,0.362
same,relative viability,NCI-H1915; first compound 1 µM,0.271
same,relative viability,HOP-62; first compound 0.01 µM,0.363
same,relative viability,HOP-62; first compound 0.03162 µM,0.367
same,relative viability,HOP-62; first compound 0.1 µM,0.407
same,relative viability,HOP-62; first compound 0.3162 µM,0.37
same,relative viability,HOP-62; first compound 1 µM,0.343
same,relative viability,NCI-H2023; first compound 0.01 µM,0.596
same,relative viability,NCI-H2023; first compound 0.03162 µM,0.46
same,relative viability,NCI-H2023; first compound 0.1 µM,0.293
same,relative viability,NCI-H2023; first compound 0.3162 µM,0.156
same,relative viability,NCI-H2023; first compound 1 µM,0.132
same,relative viability,EMC-BAC-2; first compound 0.01 µM,1.02
same,relative viability,EMC-BAC-2; first compound 0.03162 µM,0.84
same,relative viability,EMC-BAC-2; first compound 0.1 µM,0.921
same,relative viability,EMC-BAC-2; first compound 0.3162 µM,0.973
same,relative viability,EMC-BAC-2; first compound 1 µM,0.839
same,relative viability,NCI-H2342; first compound 0.01 µM,0.861
same,relative viability,NCI-H2342; first compound 0.03162 µM,0.756
same,relative viability,NCI-H2342; first compound 0.1 µM,0.828
same,relative viability,NCI-H2342; first compound 0.3162 µM,0.863
same,relative viability,NCI-H2342; first compound 1 µM,0.97
same,relative viability,PC-14; first compound 0.01 µM,0.802
same,relative viability,PC-14; first compound 0.03162 µM,0.832
same,relative viability,PC-14; first compound 0.1 µM,0.659
same,relative viability,PC-14; first compound 0.3162 µM,0.236
same,relative viability,PC-14; first compound 1 µM,0.0675
same,relative viability,LCLC-97TM1; first compound 0.01 µM,0.199
same,relative viability,LCLC-97TM1; first compound 0.03162 µM,0.214
same,relative viability,LCLC-97TM1; first compound 0.1 µM,0.185
same,relative viability,LCLC-97TM1; first compound 0.3162 µM,0.202
same,relative viability,LCLC-97TM1; first compound 1 µM,0.182
same,relative viability,LXF-289; first compound 0.01 µM,0.618
same,relative viability,LXF-289; first compound 0.03162 µM,0.699
same,relative viability,LXF-289; first compound 0.1 µM,0.692
same,relative viability,LXF-289; first compound 0.3162 µM,0.458
same,relative viability,LXF-289; first compound 1 µM,0.68
same,relative viability,H3255; first compound 0.01 µM,0.71
same,relative viability,H3255; first compound 0.03162 µM,0.72
same,relative viability,H3255; first compound 0.1 µM,0.698
same,relative viability,H3255; first compound 0.3162 µM,0.618
same,relative viability,H3255; first compound 1 µM,0.682
same,relative viability,EPLC-272H; first compound 0.01 µM,0.28
same,relative viability,EPLC-272H; first compound 0.03162 µM,0.297
same,relative viability,EPLC-272H; first compound 0.1 µM,0.277
same,relative viability,EPLC-272H; first compound 0.3162 µM,0.293
same,relative viability,EPLC-272H; first compound 1 µM,0.227
